In experiment [1] the test system is NCI-H358 (K-Ras G12C). The experiment is described as follows: CellTiter-Glo cell viability assay, NCI-H358. Type of experiment: cell-based, human. Summed up: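 NCI-H358 (K-Ras G12C) cells treated with compound dispensed directly into plates. CellTiter-Glo luminescence read on day 5 after ~30 min equilibration to room temperature. Signal normalised to DMSO average ×100, then fitted with a four-parameter logistic model.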
A general note: Cellular ATP, detected with luciferase, serves as a proxy for viable cell number.

For experiment [2], the system named is NCI-H358 cells (K-Ras G12C). The experiment in a line: CellTiter-Glo cell viability, NCI-H358. Type of experiment: cell-based, human. The settings on record: K-Ras G12C, 5-day treatment, read-out: H358 Cell Viability IC50. Summed up:
(§1)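 Compounds dispensed directly onto seeded cells; on day 5 plates equilibrated ~30 min to room temperature and luminescence read. Signal normalized to DMSO average (%) and fitted by four-parameter logistic.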

The target of experiment [3] is KRAS G12C (Homo sapiens (Human), UniProt P01116+P62937, G12C). The experiment is described as follows: Ras-Raf disruption/FRET/MOA assay (BRAF RBD, Cyclophilin A). Format: biochemical. To be noted: read-out: KRAS G12C FRET IC50. Summed up: (§2)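 TR-FRET readout: anti-His Eu-W1024 (10 nM) and anti-GST allophycocyanin (50 nM) added after 3 h, 25° C compound incubation, then 1.5 h more. Decrease in FRET ratio versus DMSO wells marks Ras:RAF disruption; IC50 reported.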
Sequence of KRAS G12C (P01116-2 other isoform, or with tags, fused parts or gaps G12C): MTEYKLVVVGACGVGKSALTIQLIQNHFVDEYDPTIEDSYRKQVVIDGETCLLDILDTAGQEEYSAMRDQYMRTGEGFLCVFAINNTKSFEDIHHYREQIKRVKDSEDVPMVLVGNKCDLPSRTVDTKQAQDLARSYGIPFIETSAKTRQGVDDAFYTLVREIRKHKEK
Sequence of KRAS G12C (P62937 whole entry): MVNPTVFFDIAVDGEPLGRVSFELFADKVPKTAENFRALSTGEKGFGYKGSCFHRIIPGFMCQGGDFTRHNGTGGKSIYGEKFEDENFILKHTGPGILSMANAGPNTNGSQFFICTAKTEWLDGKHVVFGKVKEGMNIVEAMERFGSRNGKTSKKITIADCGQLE

Experiment [4] deals with KRAS G13C (Homo sapiens (Human), UniProt P01116+P62937, G13C). The description is as above. Type of experiment: biochemical. To be noted: read-out: KRAS G13C FRET IC50. Summed up:
as §2

In experiment [5] the target is KRAS G12D (Homo sapiens (Human), UniProt P01116+P62937, G12D). The experiment is described as above. Format: biochemical. The settings on record: read-out: KRAS G12D FRET IC50. Summed up: as §2
Sequence of KRAS G12D (P01116 other isoform, or with tags, fused parts or gaps G12D): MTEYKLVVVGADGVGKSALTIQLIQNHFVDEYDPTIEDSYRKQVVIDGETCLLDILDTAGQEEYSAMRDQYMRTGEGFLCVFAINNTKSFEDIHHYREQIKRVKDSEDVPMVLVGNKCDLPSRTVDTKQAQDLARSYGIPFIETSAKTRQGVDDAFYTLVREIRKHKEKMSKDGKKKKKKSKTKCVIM
Sequence of KRAS G12D (P62937 whole entry): as the sequence (P62937 whole entry) above
Experiment [6] has as its target KRAS G13D (Homo sapiens (Human), UniProt P01116+P62937, G13D). The description is as above. Format: biochemical. The settings on record: read-out: KRAS G13D FRET data IC50. An outline of the steps: as §2
Experiment [7] concerns the target KRAS G12S (Homo sapiens (Human), UniProt P01116+P62937, G12S). The experiment is described as above. Type of experiment: biochemical. To be noted: read-out: KRAS G12S FRET IC50. An outline of the steps: as §2
Experiment [8] concerns the target KRAS WT (Homo sapiens (Human), UniProt P01116+P62937). The description is as above. Format: biochemical. To be noted: read-out: KRAS WT FRET data IC50. An outline of the steps: as §2
Experiment [9] deals with KRAS G12V (Homo sapiens (Human), UniProt P01116+P62937, G12V). Described as above. Format: biochemical. The settings on record: read-out: KRAS G12V FRET IC50. Summed up:
as §2

Experiment [10] addresses NRAS G12C (Homo sapiens (Human), UniProt P01111+P62937, G12C). The experiment is described as above. Type of experiment: biochemical. To be noted: read-out: NRAS G12C FRET data IC50. Summed up:
as §2

Experiment [11] deals with Capan-1 cells (K-Ras G12V). The experiment in a line: CellTiter-Glo cell viability, Capan-1. Type of experiment: cell-based, human. The settings on record: K-Ras G12V, 5-day treatment, read-out: Capan-1 Cell Viability IC50. Summed up: as §1
For experiment [12], the target named is K-Ras G12C(GMP-PNP) binding to BRAF RBD (Homo sapiens (Human), UniProt P01116+P62937, G12C). The experiment in a line: Disruption of BRAF RBD interaction with K-Ras (FRET / MOA assay), K-Ras G12C. Type of experiment: biochemical. To be noted: read-out: KRAS G12C FRET IC50. An outline of the steps:
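Compounds promote ternary complex of nucleotide-loaded Ras (here K-Ras G12C·GMP-PNP; other Ras mutants substituted) with cyclophilin A, disrupting BRAF RBD binding. 10-point 3-fold series from 30 μM final, 3 h at 25 °C, then anti-His Eu (10 nM) and anti-GST APC (50 nM) for 1.5 h. TR-FRET ratio decrease versus DMSO gave IC50.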

In experiment [13] the test system is K-Ras G12C (NCI-H358 cells). The experiment in a line: Potency assay: pERK in NCI-H358 cells. Type of experiment: cell-based, human. To be noted: NCI-H358 cells, 4 hours, read-out: pERK EC50 (H358 KRAS G12C). Summed up: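 Cells plated the day before were exposed for 4 h at 37° C, 5% CO2 to a 10-point, 3-fold DMSO dilution series (10 mM top stock), in duplicate. Phospho-ERK was read by AlphaLISA SureFire Ultra or by In-Cell Western with DRAQ5 DNA stain, and IC50 came from a 4-parameter sigmoidal fit.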

The mark [14] stands for this setting: Homo sapiens, NCI-H358, 120 h, 5-day treatment, read-out: H358 Cell Viability assay data (K-Ras G12C, IC50).

“And” between values parts separate entries of the source, which are not always exact repeats. Equal entries are not always repeated. Where two headings read alike, the source gives them in different places.

Sequence of K-Ras G12C(GMP-PNP) binding to BRAF RBD (P01116 other isoform, or with tags, fused parts or gaps G12C): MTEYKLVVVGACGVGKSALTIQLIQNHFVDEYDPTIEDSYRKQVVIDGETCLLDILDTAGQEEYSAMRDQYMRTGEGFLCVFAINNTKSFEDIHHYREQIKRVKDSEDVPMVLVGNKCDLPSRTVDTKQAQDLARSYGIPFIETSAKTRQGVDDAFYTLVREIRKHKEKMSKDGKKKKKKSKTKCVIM
Sequence of K-Ras G12C(GMP-PNP) binding to BRAF RBD (P62937 whole entry): as the sequence (P62937 whole entry) above
Sequence of KRAS G12S (P01116 other isoform, or with tags, fused parts or gaps G12S): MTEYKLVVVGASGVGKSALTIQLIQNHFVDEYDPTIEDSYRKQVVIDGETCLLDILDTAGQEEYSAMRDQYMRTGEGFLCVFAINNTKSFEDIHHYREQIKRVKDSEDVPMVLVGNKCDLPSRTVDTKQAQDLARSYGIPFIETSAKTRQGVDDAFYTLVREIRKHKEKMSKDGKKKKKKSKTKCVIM
Sequence of KRAS G12S (P62937 whole entry): as the sequence (P62937 whole entry) above
Sequence of KRAS G12V (P01116 other isoform, or with tags, fused parts or gaps G12V): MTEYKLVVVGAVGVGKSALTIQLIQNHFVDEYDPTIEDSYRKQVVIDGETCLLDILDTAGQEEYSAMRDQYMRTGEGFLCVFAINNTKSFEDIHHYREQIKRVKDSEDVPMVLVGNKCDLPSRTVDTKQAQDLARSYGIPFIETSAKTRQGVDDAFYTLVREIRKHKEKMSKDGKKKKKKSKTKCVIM
Sequence of KRAS G12V (P62937 whole entry): as the sequence (P62937 whole entry) above
Sequence of NRAS G12C (P01111 whole entry G12C): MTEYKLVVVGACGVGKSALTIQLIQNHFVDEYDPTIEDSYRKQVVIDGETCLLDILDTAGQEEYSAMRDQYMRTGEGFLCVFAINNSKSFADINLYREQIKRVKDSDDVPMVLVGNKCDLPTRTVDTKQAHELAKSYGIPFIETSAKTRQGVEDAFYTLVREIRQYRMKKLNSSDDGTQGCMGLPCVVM
Sequence of NRAS G12C (P62937 whole entry): as the sequence (P62937 whole entry) above
Sequence of KRAS WT (P01116 other isoform, or with tags, fused parts or gaps): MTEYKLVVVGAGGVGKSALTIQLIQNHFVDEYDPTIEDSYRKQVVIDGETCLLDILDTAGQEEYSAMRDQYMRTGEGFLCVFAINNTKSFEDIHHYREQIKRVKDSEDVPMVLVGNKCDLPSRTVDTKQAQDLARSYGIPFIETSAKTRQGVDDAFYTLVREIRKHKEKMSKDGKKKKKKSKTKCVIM
Sequence of KRAS WT (P62937 whole entry): as the sequence (P62937 whole entry) above
Sequence of KRAS G13D (P01116 other isoform, or with tags, fused parts or gaps G13D): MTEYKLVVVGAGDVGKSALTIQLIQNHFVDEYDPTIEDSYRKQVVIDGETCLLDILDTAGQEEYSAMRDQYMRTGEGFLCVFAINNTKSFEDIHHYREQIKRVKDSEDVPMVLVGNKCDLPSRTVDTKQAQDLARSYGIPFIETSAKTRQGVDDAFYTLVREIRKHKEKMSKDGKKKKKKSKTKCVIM
Sequence of KRAS G13D (P62937 whole entry): as the sequence (P62937 whole entry) above
Sequence of KRAS G13C (P01116 other isoform, or with tags, fused parts or gaps G13C): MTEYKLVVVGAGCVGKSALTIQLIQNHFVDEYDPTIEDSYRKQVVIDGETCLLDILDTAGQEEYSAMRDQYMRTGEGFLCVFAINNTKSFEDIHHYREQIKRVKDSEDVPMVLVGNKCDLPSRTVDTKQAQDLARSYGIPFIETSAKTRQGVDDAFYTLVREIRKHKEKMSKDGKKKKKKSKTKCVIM
Sequence of KRAS G13C (P62937 whole entry): as the sequence (P62937 whole entry) above

Turning to `CCn1c(-c2cccnc2[C@H](C)OC)c2c3cc(ccc31)-c1csc(n1)C[C@H](NC(=O)[C@H](C(C)C)N(C)C(=O)N1C[C@@H]3C[C@H]1CN3C)C(=O)N1CCC[C@H](N1)C(=O)OCC(C)(C)C2` [Compound A314], the IC50 (usually the concentration needed to halve the response being measured) lay in the range of 0.1 to 1 µM in experiment [1] (setting [14]); 0.1 to 1 µM in experiment [2] (Homo sapiens, NCI-H358, 120 h); 0.1 to 1 µM in experiment [3]; 0.1 to 1 µM in [4]; 0.1 to 1 µM in experiment [5]; 0.1 to 1 µM in experiment [6]. The IC50 in experiment [7] is 0.1 to 1 µM; in experiment [8], 0.1 to 1 µM; in [9], 0.1 to 1 µM; in experiment [10], 0.1 to 1 µM; in [11] (Homo sapiens, CAPAN-1, 120 h), 0.1 to 1 µM; in experiment [12], 0.1 to 1 µM.

With `CCn1c(-c2cccnc2[C@H](C)OC)c2c3cc(ccc31)-c1cc(O)cc(c1)C[C@H](NC(=O)[C@H](C(C)C)N(C)C(=O)[C@@H]1C[C@@H]1C)C(=O)N1CCC[C@H](N1)C(=O)OCC(C)(C)C2` [Compound A223], the IC50 in experiment [1] (setting [14]) was > 10 µM; in experiment [3], 0.01 to 0.1 µM; in experiment [4], 0.01 to 0.1 µM; in [5], 0.01 to 0.1 µM; in experiment [6] it was 0.01 to 0.1 µM; in experiment [7] it was 0.01 to 0.1 µM. The IC50 in experiment [8] is 0.01 to 0.1 µM; in [9], 0.01 to 0.1 µM; in experiment [10] it was 0.01 to 0.1 µM; in experiment [11] (Homo sapiens, CAPAN-1, 120 h), 0.1 to 1 µM; in experiment [12] it was 0.1 to 1 µM and > 10 µM.

Turning to `CCn1c(-c2cc(N3CCN(C)CC3)cnc2[C@H](C)OC)c2c3cc(ccc31)-c1csc(n1)C[C@H](NC(=O)[C@H](C(C)C)N(C)C(=O)[C@@H]1OCC[C@@H]1c1ccccc1)C(=O)N1CCC[C@H](N1)C(=O)OCC(C)(C)C2` [Compound A593], the IC50 in experiment [1] (setting [14]) was 0.1 to 1 µM; in experiment [2] (Homo sapiens, NCI-H358, 120 h) it was < 0.01 µM; in [11] (Homo sapiens, CAPAN-1, 120 h) it was < 0.01 µM; in [12], 0.1 to 1 µM. In addition, in experiment [13] (Homo sapiens), the EC50 (commonly the concentration needed to bring the measured effect to its halfway point) is < 5 µM.

As to `CCn1c(-c2cccnc2[C@H](C)OC)c2c3cc(ccc31)-c1csc(n1)C[C@H](NC(=O)[C@H](C(C)C)N(C)C(=O)N1CCC[C@@H](N(C)C)CC1)C(=O)N1CCC[C@H](N1)C(=O)OCC(C)(C)C2` [Compound A494], the IC50 in experiment [1] (Homo sapiens, NCI-H358, 120 h, read-out: H358 Cell Viability assay data (K-Ras G12C, IC50, uM), 5-day treatment) was 0.1 to 1 µM; in experiment [2] (Homo sapiens, NCI-H358, 120 h) it was 0.01 to 0.1 µM; in experiment [12] it was 0.1 to 1 µM.

Take `CCn1c(-c2cnccc2COC)c2c3cc(ccc31)-c1cc(O)cc(c1)C[C@H](NC(=O)[C@H](C(C)C)N(C)C(=O)[C@H]1CNC[C@H]1C(F)(F)F)C(=O)N1CCC[C@H](N1)C(=O)OCC(C)(C)C2` [Compound A216]: the IC50 in experiment [2] (Homo sapiens, NCI-H358, 120 h) fell in the range of 1 to 10 µM; in experiment [3], 0.01 to 0.1 µM; in [4] it was 0.01 to 0.1 µM; in experiment [5], 0.1 to 1 µM; in experiment [6] it was 0.01 to 0.1 µM; in [7], 0.1 to 1 µM. The IC50 in experiment [8] is 0.01 to 0.1 µM; in [9] it was 1 to 10 µM; in experiment [10], 0.1 to 1 µM; in experiment [11] (Homo sapiens, CAPAN-1, 120 h), 1 to 10 µM; in experiment [12], 0.1 to 1 µM and 1 to 10 µM.

Regarding `CCn1c(-c2cccnc2[C@H](C)OC)c2c3cc(ccc31)-c1csc(n1)C[C@H](NC(=O)[C@H]1[C@H](C)[C@@H]1C)C(=O)N1CCC[C@H](N1)C(=O)OCC(C)(C)C2` [Compound A227, (1R,2R,3S)—N-((6^3S,4S,Z)-1^1-ethyl-1^2-(2-((S)-1-methoxyethyl)pyridin-3-yl)-10,10-dimethyl-5,7-dioxo-6^1,6^2,6^3,6^4,6^5,6^6-hexahydro-1^1H-8-oxa-2 (4,2)-thiazola-1 (5,3)-indola-6 (1,3)-pyridazinacycloundecaphane-4-yl)-2,3-dimethylcyclopropane-1-carboxamide], the IC50 in experiment [1] (5-day treatment, read-out: H358 Cell Viability assay data (K-Ras G12C, IC50)) is 0.1 to 1 µM; in [2], 1 to 10 µM; in experiment [4], 0.01 to 0.1 µM; in [11], > 10 µM; in experiment [12], 0.1 to 1 µM. For the same molecule, the EC50 in experiment [13] was < 5 µM.

On to `CCn1c(-c2cccnc2[C@H](C)OC)c2c3cc(ccc31)-c1csc(n1)C[C@H](NC(=O)[C@H](C(C)C)N(C)C(=O)N1C[C@H](C)N(C)C[C@@H]1C)C(=O)N1CCC[C@H](N1)C(=O)OCC(C)(C)C2` [Compound A283], for which the IC50 in experiment [2] (Homo sapiens, NCI-H358, 120 h) was 0.1 to 1 µM; in experiment [11] (Homo sapiens, CAPAN-1, 120 h) it was 0.1 to 1 µM; in [12], 0.01 to 0.1 µM and 1 to 10 µM. Further, in experiment [13] (Homo sapiens), the 50% effective concentration (EC50) was < 5 µM.

These data come from patent US20250195521A1 (Revolution Medicines, Inc., priority 2020, published 2025).
